Results as given in patent US5151517A, “Derivatives of tetrahydro-2,3,6,7,1H,5H,11H-(1)benzopyrano(6,7,8,i,j)quinolizinone-11 usable as markers for organic compounds, particularly biological compounds with a view to their detection by chemiluminescence or fluorescence” (Laboratories Eurobio, priority 1989, dated 1992).
Blank lines part the entries; values can stand above or below the compound they belong to.

Legend:
[1] = reference standard; 2 mg/l in 0.1N H2SO4; cited from earlier work
[2] = Storage stability of luminarine-7 in dimethyl formamide solution; format: physicochemical; conditions: -20° C., in the presence of P2O5
Protocol: (§1) Stirring takes place for 2 hours and then the dicyclohexylurea formed is filtered. The remaining product, luminarine-7, is kept in solution in dimethyl formamide.

[3] = Hydrosolubility of a dried aliquot of luminarine-7; format: physicochemical; conditions: dried aliquot portion
Protocol: as §1

[4] = Comparison of fluorescence, absorbance and chemiluminescence properties of coumarin nuclei; format: physicochemical; conditions: compared with coumarine-1 and coumarine-311, tables 1 and 2
Protocol: The fluorescence measurements are carried out with a Perkin Elmer LS5 spectrifluorometer with 2 nm slit widths for two monochromators. The absorbance measurements were carried out with a Jobin Yvon JY3 spectrophotometer. The chemiluminescence measurements were obtained by using a Jobin Yvon JY4 spectrofluorimeter with 10 nm slit widths. The cell for the liquid samples is a 10×10 mm quart cell with a capacity of 3 ml and filled with 2 ml of solution, which corresponds to a real solution volume exposed to the photomultiplier of 1.35 ml. […] For the coumarins, use was made of a solution of acetone and ethyl acetate in a volume ratio of 75:25 with a 10^-6 mole/l coumarin concentration ensuring in each case an absorbance below 0.05. […] When DNPO is used, to the same solution of coumarin in acetone are added 0.5 ml of a 10^-3 mole/l DNPO solution in ethyl acetate and 0.5 ml of a 10^-2 mole/l H2 O2 solution in acetone.

[5] = Chemiluminescence measurements with TCPO and H2O2; format: physicochemical; conditions: TCPO = bis(trichloro-2,4,6 phenyl) oxalate; for RC = chemiluminescence quantum efficiency: 10^-3 mole/l coumarin, imidazole nitrate buffer pH 7.5; for RE = excitation efficiency: RC = Rex × RF
Protocol: (§2) The absorbance measurements were carried out with a Jobin Yvon JY3 spectrophotometer. The chemiluminescence measurements were obtained by using a Jobin Yvon JY4 spectrofluorimeter with 10 nm slit widths. The cell for the liquid samples is a 10×10 mm quart cell with a capacity of 3 ml and filled with 2 ml of solution, which corresponds to a real solution volume exposed to the photomultiplier of 1.35 ml.
(§3) In order to determine the chemiluminescence quantum efficiencies Rc, the intensity was estimated as a function of time at the emission maximum. When the intensity decrease is relatively low, the emission spectrum is plotted and then the intensity is followed as a function of time until it has dropped to 2% of the maximum intensity.
(§4) The other luminescence parameters are measured directly. These consist of the maximum intensity (lmax), the time for reaching the maximum intensity (Tmax) and the time for reaching half the maximum intensity following the maximum time (T1/2).
(§5) The chemi luminescence efficiency Rc is calculated by the Rauhut method described in J. Am. Chem. Soc., 88, 15, 1966, p.3604.
(§6) The excitation efficiency Rex is determined on the basis of the formula: […]
(§7) For chemiluminescence measurements with TCPO, to 1 ml of the solution containing 10^-3 mole/l of coumarin are added 0.5 ml of a 2·10^-3 mole/l TCPO solution in ethyl acetate, 0.5 ml of a 2·10^-2 mole/l H2 O2 solution in acetone and 10 μl of a 0.1 mole/l imidazole nitrate buffer at pH 7.5. When DNPO is used, to the same solution of coumarin in acetone are added 0.5 ml of a 10^-3 mole/l DNPO solution in ethyl acetate and 0.5 ml of a 10^-2 mole/l H2 O2 solution in acetone.

[6] = Absorbance measurements (molecular extinction coefficient); format: physicochemical; conditions: acetone/ethyl acetate 75:25, 10^-6 mole/l coumarin
Protocol: as §2
(§8) Fluorescence and Absorbance Measurements
(§9) These measurements were carried out at 20^+ 2° C. and the quantum efficiencies of fluorescence RF of coumarins-1, 311 and 102 were determined compared with quinine disulphate, whose fluorescence quantum efficiency is 0.546 using the Parker method described in Analyst, 85, 1960, p. 587 using a 2 mg/l quinine disulphate solution in 0.1N H2 SO4.
(§10) For the coumarins, use was made of a solution of acetone and ethyl acetate in a volume ratio of 75:25 with a 10^-6 mole/l coumarin concentration ensuring in each case an absorbance below 0.05.

[7] = Chemiluminescence measurements with DNPO (printed DMPO in table 2) and H2O2; format: physicochemical; conditions: DMPO = bis(dinitro-2,4 phenyl)oxalate; for RC = chemiluminescence quantum efficiency: 10^-3 mole/l coumarin; for RE = excitation efficiency: RC = Rex × RF
Protocol: as §2, §3, §4, §5, §6, §7

[8] = Chemiluminescence as a function of the pH of the solution; format: physicochemical
Protocol: as §2, §3, §4, §5, §7
Table 4 gives the variations of the chemiluminescence efficiency, lmax, Tmax and T1/2, as a function of the pH of the solution. […] However, the values for Tmax and T1/2 decrease when the pH increases beyond 5.

[9] = Fluorescence measurements (quantum efficiency vs quinine disulphate, sensitivity); format: physicochemical; conditions: for S = fluorescence sensitivity: acetone/ethyl acetate 75:25; for RF = fluorescence quantum efficiency: acetone/ethyl acetate 75:25, 10^-6 mole/l coumarin, 20 ± 2° C., vs quinine disulphate
Protocol: The fluorescence measurements are carried out with a Perkin Elmer LS5 spectrifluorometer with 2 nm slit widths for two monochromators.
as §8, §9, §10

[10] = Chemiluminescence with TCPO and H2O2 as a function of the coumarin-102 concentration; format: physicochemical; conditions: for Imax (maximum intensity) / RC × 10^4 (chemiluminescence efficiency) / T1/2 (time for reaching half the maximum intensity following the maximum time) / Tmax (time for reaching the maximum intensity): TCPO and H2O2
Protocol: The absorbance measurements were carried out with a Jobin Yvon JY3 spectrophotometer. The chemiluminescence measurements were obtained by using a Jobin Yvon JY4 spectrofluorimeter with 10 nm slit widths. The cell for the liquid samples is a 10×10 mm quart cell with a capacity of 3 ml and filled with 2 ml of solution, which corresponds to a real solution volume exposed to the photomultiplier of 1.35 ml. In order to determine the chemiluminescence quantum efficiencies Rc, the intensity was estimated as a function of time at the emission maximum. […] The other luminescence parameters are measured directly. These consist of the maximum intensity (lmax), the time for reaching the maximum intensity (Tmax) and the time for reaching half the maximum intensity following the maximum time (T1/2). The chemi luminescence efficiency Rc is calculated by the Rauhut method described in J. Am. Chem. […] When DNPO is used, to the same solution of coumarin in acetone are added 0.5 ml of a 10^-3 mole/l DNPO solution in ethyl acetate and 0.5 ml of a 10^-2 mole/l H2 O2 solution in acetone.

SMILES: C=CC1CN2CCC1CC2C(O)c1ccnc2ccc(OC)cc12 (stereo not drawn) [quinine disulphate]
fluorescence quantum efficiency [1]: 0.546

hydrosolubility [3]: total hydrosolubility
SMILES: O=C(CCC(=O)ON1C(=O)CCC1=O)NCCOCCOCCOCCOCCOCCNC(=O)Cc1cc(=O)oc2c3c4c(cc12)CCCN4CCC3 [luminarine-7]
storage stability [2]: several months at -20 °C without any deterioration

RC = chemiluminescence quantum efficiency [5]: 0.37 10^2 E · mole^-1
RE = excitation efficiency [5]: 0.65 10^2
ε = molecular extinction coefficient, 365 nm [6]: 23000 M⁻¹ cm⁻¹
RC = chemiluminescence quantum efficiency [7]: 0.26 10^2 E · mole^-1
RE = excitation efficiency [7]: 0.45 10^2
Imax (maximum intensity) ([8]; pH 4): 24 A.U.
RC × 10^4 (chemiluminescence efficiency) ([8]; pH 4): 1.52 E · mole^-1
T1/2 (time for reaching half the maximum intensity following the maximum time) ([8]; pH 4): 300 s
Tmax (time for reaching the maximum intensity) ([8]; pH 4): 48 s
Imax (maximum intensity) ([8]; pH 5): 17 A.U.
RC × 10^4 (chemiluminescence efficiency) ([8]; pH 5): 1.58 E · mole^-1
T1/2 (time for reaching half the maximum intensity following the maximum time) ([8]; pH 5): 360 s
Tmax (time for reaching the maximum intensity) ([8]; pH 5): 60 s
Imax (maximum intensity) ([8]; pH 6): 25 A.U.
RC × 10^4 (chemiluminescence efficiency) ([8]; pH 6): 2.34 E · mole^-1
T1/2 (time for reaching half the maximum intensity following the maximum time) ([8]; pH 6): 336 s
Tmax (time for reaching the maximum intensity) ([8]; pH 6): 48 s
Imax (maximum intensity) ([8]; pH 7): 110 A.U.
RC × 10^4 (chemiluminescence efficiency) ([8]; pH 7): 2.23 E · mole^-1
T1/2 (time for reaching half the maximum intensity following the maximum time) ([8]; pH 7): 108 s
Tmax (time for reaching the maximum intensity) ([8]; pH 7): 24 s
Imax (maximum intensity) ([8]; pH 8): 245 A.U.
RC × 10^4 (chemiluminescence efficiency) ([8]; pH 8): 1.60 E · mole^-1
T1/2 (time for reaching half the maximum intensity following the maximum time) ([8]; pH 8): 24 s
Tmax (time for reaching the maximum intensity) ([8]; pH 8): 12 s
S = fluorescence sensitivity [9]: 36 10^3
RF = fluorescence quantum efficiency [9]: 0.57
Imax (maximum intensity) ([10]; (C102) 1.4 × 10^-3): 301 A.U.
RC × 10^4 (chemiluminescence efficiency) ([10]; (C102) 1.4 × 10^-3): 12.0 E · mole^-1
T1/2 (time for reaching half the maximum intensity following the maximum time) ([10]; (C102) 1.4 × 10^-3): 6 s
Tmax (time for reaching the maximum intensity) ([10]; (C102) 1.4 × 10^-3): 12 s
Imax (maximum intensity) ([10]; (C102) 1.4 × 10^-6): 75 A.U.
RC × 10^4 (chemiluminescence efficiency) ([10]; (C102) 1.4 × 10^-6): 4.14 E · mole^-1
T1/2 (time for reaching half the maximum intensity following the maximum time) ([10]; (C102) 1.4 × 10^-6): 9 s
Tmax (time for reaching the maximum intensity) ([10]; (C102) 1.4 × 10^-6): 12 s
Imax (maximum intensity) ([10]; (C102) 1.4 × 10^-7): 31 A.U.
RC × 10^4 (chemiluminescence efficiency) ([10]; (C102) 1.4 × 10^-7): 2.31 E · mole^-1
T1/2 (time for reaching half the maximum intensity following the maximum time) ([10]; (C102) 1.4 × 10^-7): 7.2 s
Tmax (time for reaching the maximum intensity) ([10]; (C102) 1.4 × 10^-7): 12 s
Imax (maximum intensity) ([10]; (C102) 1.4 × 10^-8): 3.2 A.U.
RC × 10^4 (chemiluminescence efficiency) ([10]; (C102) 1.4 × 10^-8): 0.40 E · mole^-1
T1/2 (time for reaching half the maximum intensity following the maximum time) ([10]; (C102) 1.4 × 10^-8): 6 s
Tmax (time for reaching the maximum intensity) ([10]; (C102) 1.4 × 10^-8): 12 s
Imax (maximum intensity) ([10]; (C102) 1.4 × 10^-9): 0.3 A.U.
RC × 10^4 (chemiluminescence efficiency) ([10]; (C102) 1.4 × 10^-9): 0.20 E · mole^-1
T1/2 (time for reaching half the maximum intensity following the maximum time) ([10]; (C102) 1.4 × 10^-9): 4.8 s
Tmax (time for reaching the maximum intensity) ([10]; (C102) 1.4 × 10^-9): 12 s
SMILES: Cc1cc(=O)oc2c3c4c(cc12)CCCN4CCC3 [COUMARINE-102, tetrahydro-2,3,5,6,7,1H,5H,11H-(1)-benzopyrano(6,7,8-ij)methyl-9 quinolizinone-11]
fluorescence, absorbance and chemiluminescence properties [4]: better fluorescence, absorbance and chemiluminescece properties
chemiluminescence efficiency as a function of concentration ([10]; TCPO and H2O2, table 3): chemiluminescence efficiency increases with the coumar in-102 concentration

SMILES: CCN(CC)c1ccc2c(C)cc(=O)oc2c1 [COUMARINE-1, dimethylamino-7 methyl-4 coumarin]
RC = chemiluminescence quantum efficiency [5]: 0.37 10^2 E · mole^-1
RE = excitation efficiency [5]: 0.67 10^2
ε = molecular extinction coefficient, 365 nm [6]: 38 000
RC = chemiluminescence quantum efficiency [7]: 0.18 10^2 E · mole^-1
RE = excitation efficiency [7]: 0.33 10^2
S = fluorescence sensitivity [9]: 57 10^3
RF = fluorescence quantum efficiency [9]: 0.55

RC = chemiluminescence quantum efficiency [5]: 0.17 10^2 E · mole^-1
RE = excitation efficiency [5]: 0.32 10^2
ε = molecular extinction coefficient, 365 nm [6]: 26900 M⁻¹ cm⁻¹
RC = chemiluminescence quantum efficiency [7]: 0.13 10^2 E · mole^-1
RE = excitation efficiency [7]: 0.24 10^2
S = fluorescence sensitivity [9]: 40 10^3
RF = fluorescence quantum efficiency [9]: 0.52
SMILES: Cc1cc(=O)oc2cc(N(C)C)ccc12 [COUMARINE-311, dimethylamino-7 methyl-4 coumarin]
